Measured values from paper PMC11713119, “Optimizing metabolic stability of phosphodiesterase 5 inhibitors: Discovery of a potent N‐(pyridin‐3‐ylmethyl)quinoline derivative targeting synaptic plasticity” (Alzheimer's & Dementia, 2025).
pIC50: −log10 of the molar value.

Target: T1, Phosphodiesterase 5 (PDE5) (Homo sapiens, UniProt O76074)
T1 construct: gene PDE5A
Assay: PDE5 inhibition IC50 (assay details not given)
Assay type: biochemical

| SMILES | pIC50 |
| --- | --- |
| COc1ccc(CNc2c(CO)cnc3c(C4CC4)cc(C#N)cc23)cc1Cl [7a, 4‐((3‐chloro‐4‐methoxybenzyl)amino)‐8‐cyclopropyl‐3‐(hydroxymethyl)quinoline‐6‐carbonitrile] | 9.57 |
| COc1ccc(CNc2c(CO)cnc3c(C4CC4)cc(C#N)cc23)cn1 [4b, 8‐cyclopropyl‐3‐(hydroxymethyl)‐4‐(((6‐methoxypyridin‐3‐yl)methyl)amino)quinoline‐6‐carbonitrile] | 7.70 |
